Legend:
Type in all cases: cell-based
LDLR = LDLR expression of primary γδ T cells pre-treated with statin; conditions: different concentrations, compared to lentiviral vector only-transduced cells, FIGS. 10A-10B
Description: (§1) Next, the effect of pre-treatment with statin in lentiviral transduction of primary γδ T cells on LDLR expression was evaluated. Three primary γδ T cells samples from healthy donors were expanded with Zol for five days, pre-treated in the presence or absence of Rosuvastatin and Atorvastatin at different concentrations, as described above, and evaluated for LDLR expression.

primary γδ T cells = assay: Frequency of Vγ9Vδ2 subset of primary γδ T cells pre-treated with statin (flow cytometry); conditions: different concentrations, compared to lentiviral vector only at 0 statin concentration, FIGS. 11A-11B
Description: as §1, with “on the frequency of Vγ9Vδ2 T cell subset within the γδ T cells” for “on LDLR expression”, “Rosuvastatin or” for “Rosuvastatin and”, “for Vγ9Vδ2 expression, using flow cytometry.” for “for LDLR expression.”

primary NK cells [1] = assay: Surface CAR expression of primary NK cells transduced with Antigen-1 CAR lentivirus with or without PDK1 inhibitor (flow cytometry); conditions: BX795 0.5 to 7.5 μM, compared to cells transduced without BX795, n=2, FIGS. 2B-2C
Description: NK cells were first activated in preparation of the transduction. One day 0, 0.5-1×10^6 NK cells per well were distributed in a 24-well plate.
Loaded Anti-Biotin MACSiBead particles (Miltenyi Biotech, Cat #130-094-483) for NK cell activation were resuspended thoroughly and were transferred to a suitable tube at the amount of 5 μL (5×10^5 loaded Anti-Biotin MACSiBead particles) per 1×10^6 NK cells. 100 μL culture medium was added to the loaded Anti-Biotin MACSiBead particles. The mixture was centrifuged at 300×g for 5 minutes so that the beads were washed prior to being added to the plated NK cells. […]
Lentiviral transduction was performed on day 5 or 6. […] The amount of virus needed for transducing cells was determined based on desired multiplicity of infection (MOI). […]
Cells were monitored as early as day 3-4 post transduction for surface CAR expression. The cell number of NK cells was determined. […] The CAR expression on NK cells was then measured using flow cytometry analysis.
To test whether PDK1 inhibitors can improve CAR transduction efficiency or surface CAR stability, primary NK cells were activated and transduced with a Antigen-1 CAR in the presence or absence of an PDK1 inhibitor, BX795 (InvivoGen, cat #tlrl-bx7), at concentrations varying from 0.5 to 7.5 μM. […] Surface CAR expression was monitored at regular intervals using an anti-myc tag AF647 antibody (Cell Signaling, Cat #2233, 1:200).

[2] = test system: low-density lipoprotein receptor (LDLR); assay: LDLR expression on primary NK cells after statin pre-treatment during activation; conditions: 5 μM during activation, DMSO negative control, n=3, FIG. 3A
Description: To test whether statins can improve CAR transduction efficiency or surface CAR stability, cells were pre-treated with 5 μM Rosuvastatin (Cayman Chemical, cat #12029) during the activation prior to the transduction. Then, activated primary NK cells were transduced with a Antigen-2 CAR at MOI of 5. Cells pre-treated with DMSO were included as a negative control.

primary NK cells [3] = assay: Antigen-2 CAR expression of primary NK cells transduced after statin pre-treatment; conditions: primary NK cells pre-treated with 5 μM, MOI of 5, FIG. 3B
Description: Lentiviral transduction was performed on day 5 or 6. NK cells were resuspended to determine if cell number had changed from day 0. Lentiviral particles were thawed on ice. Once thawed, lentiviral particles were taken out from ice and equilibrated to room temperature before being added to the activated NK cells. The amount of virus needed for transducing cells was determined based on desired multiplicity of infection (MOI). Once the NK cells were transduced with lentiviral particles, they were returned to the incubator at 37° C. and 5% CO2.
Cells were monitored as early as day 3-4 post transduction for surface CAR expression. The cell number of NK cells was determined. 1×10^5 NK cells were collected from each sample and transferred into wells of a microtiter plate. The cells in each well of the microtiter plate were washed twice with 200 μL FACS Buffer each time. The wells were stained with 100 μL staining buffer containing appropriate CAR detection antibodies. The plate was incubated for at least 30 minutes at 4° C. without light. The cells were then washed twice with 150 μL FACS Buffer each time and were centrifuged at 400×g for 4 minutes at room temperature. The CAR expression on NK cells was then measured using flow cytometry analysis. […]

CC(C)c1c(C(=O)Nc2ccccc2)c(-c2ccccc2)c(-c2ccc(F)cc2)n1CC[C@@H](O)C[C@@H](O)CC(=O)O [Atorvastatin]
LDLR expression (LDLR): increased the LDLR expression
frequency of Vγ9Vδ2 cells (primary γδ T cells): did not change the frequency of Vγ9Vδ2 cells

O=C(NCCCNc1nc(Nc2cccc(NC(=O)N3CCCC3)c2)ncc1I)c1cccs1 [BX795]
surface CAR stability (primary NK cells [1]): improved surface CAR stability in a dose dependent manner

CC(C)c1nc(N(C)S(C)(=O)=O)nc(-c2ccc(F)cc2)c1/C=C/[C@@H](O)C[C@@H](O)CC(=O)O [Rosuvastatin]
LDLR expression on the cells [2]: increased levels of LDLR expression
Antigen-2 CAR expression (primary NK cells [3]): increased Antigen-2 CAR expression
LDLR expression (LDLR): increased the LDLR expression
frequency of Vγ9Vδ2 cells (primary γδ T cells): did not change the frequency of Vγ9Vδ2 cells

Source: US20250188492A1, “Enhanced Transfer of Genetic Instructions to Effector Immune Cells” (Janssen Biotech, Inc., priority 2022, published 2025)
